Data from ChEMBL document CHEMBL4219183, “Novel purine benzimidazoles as antimicrobial agents by regulating ROS generation and targeting clinically resistant Staphylococcus aureus DNA groove” (Bioorg Med Chem Lett, 2018).
In brackets after ≈: the same amount, converted by molar mass.

Columns and labels:
Format in all cases: functional
Staphylococcus aureus [1] = assay: Antibacterial activity against methicillin-resistant Staphylococcus aureus N315 after 24 hrs by two fold serial dilution method; details: N315, 24 h
Pseudomonas aeruginosa [2] = assay: Antibacterial activity against Pseudomonas aeruginosa after 24 hrs by two fold serial dilution method
Aspergillus fumigatus = assay: Antifungal activity against Aspergillus fumigatus after 24 hrs by two fold serial dilution method
Candida tropicalis = assay: Antifungal activity against Candida tropicalis after 24 hrs by two fold serial dilution method
Candida parapsilosis = assay: Antifungal activity against Candida parapsilosis ATCC 22019 after 24 hrs by two fold serial dilution method; details: ATCC 22019, 24 h
Pseudomonas aeruginosa [3] = assay: Antibacterial activity against Pseudomonas aeruginosa ATCC 27853 after 24 hrs by two fold serial dilution method; details: ATCC 27853, 24 h
Staphylococcus aureus [4] = assay: Antibacterial activity against Staphylococcus aureus ATCC 29213 after 24 hrs by two fold serial dilution method; details: ATCC 29213, 24 h
Klebsiella pneumoniae = assay: Antibacterial activity against Klebsiella pneumoniae after 24 hrs by two fold serial dilution method
Staphylococcus aureus [5] = assay: Antibacterial activity against Staphylococcus aureus ATCC 25923 after 24 hrs by two fold serial dilution method; details: ATCC 25923, 24 h
Candida albicans [6] = assay: Antifungal activity against Candida albicans after 24 hrs by two fold serial dilution method
Escherichia coli [7] = assay: Antibacterial activity against Escherichia coli ATCC 25922 after 24 hrs by two fold serial dilution method; details: ATCC 25922, 24 h
Enterococcus faecalis = assay: Antibacterial activity against Enterococcus faecalis after 24 hrs by two fold serial dilution method
Acinetobacter baumannii = assay: Antibacterial activity against Acinetobacter baumannii after 24 hrs by two fold serial dilution method
Escherichia coli [8] = assay: Antibacterial activity against Escherichia coli after 24 hrs by two fold serial dilution method
Staphylococcus aureus [9] = assay: Antibacterial activity against Staphylococcus aureus after 24 hrs by two fold serial dilution method
Candida albicans [10] = assay: Antifungal activity against Candida albicans ATCC 90023 after 24 hrs by two fold serial dilution method; details: ATCC 90023, 24 h

SMILES | MIC (Staphylococcus aureus [1]) | MIC (Pseudomonas aeruginosa [2]) | MIC80 (Aspergillus fumigatus) | MIC80 (Candida tropicalis) | MIC80 (Candida parapsilosis) | MIC (Pseudomonas aeruginosa [3]) | MIC (Staphylococcus aureus [4]) | MIC (Klebsiella pneumoniae) | MIC (Staphylococcus aureus [5]) | MIC80 (Candida albicans [6]) | MIC (Escherichia coli [7]) | MIC (Enterococcus faecalis) | MIC (Acinetobacter baumannii) | MIC (Escherichia coli [8]) | MIC (Staphylococcus aureus [9]) | MIC80 (Candida albicans [10])
C#CCn1c(Cn2cnc3c(N4CCOCC4)ncnc32)nc2ccccc21 | 512 µg/mL (≈ 1370 µM) | 256 µg/mL (≈ 686 µM) | 512 µg/mL (≈ 1370 µM) | 128 µg/mL (≈ 343 µM) | 256 µg/mL (≈ 686 µM) | 128 µg/mL (≈ 343 µM) | 256 µg/mL (≈ 686 µM) | 128 µg/mL (≈ 343 µM) | 128 µg/mL (≈ 343 µM) | 256 µg/mL (≈ 686 µM) | 512 µg/mL (≈ 1370 µM) | 256 µg/mL (≈ 686 µM) | 256 µg/mL (≈ 686 µM) | 128 µg/mL (≈ 343 µM) | 128 µg/mL (≈ 343 µM) | 256 µg/mL (≈ 686 µM)
CCn1cc(C(=O)O)c(=O)c2cc(F)c(N3CCNCC3)cc21 [NORFLOXACIN] | > 512 µg/mL | 4 µg/mL (≈ 12.5 µM) |  |  |  | 512 µg/mL (≈ 1600 µM) | 8 µg/mL (≈ 25.1 µM) | > 512 µg/mL | 32 µg/mL (≈ 100 µM) |  | 1 µg/mL (≈ 3.13 µM) | 256 µg/mL (≈ 802 µM) | 32 µg/mL (≈ 100 µM) | 512 µg/mL (≈ 1600 µM) | 64 µg/mL (≈ 200 µM) | 
CCCCn1c(Cn2cnc3c(N4CCOCC4)ncnc32)nc2ccccc21 | 512 µg/mL (≈ 1310 µM) | 256 µg/mL (≈ 654 µM) | 256 µg/mL (≈ 654 µM) | 128 µg/mL (≈ 327 µM) | 256 µg/mL (≈ 654 µM) | 128 µg/mL (≈ 327 µM) | 128 µg/mL (≈ 327 µM) | 256 µg/mL (≈ 654 µM) | 256 µg/mL (≈ 654 µM) | 256 µg/mL (≈ 654 µM) | 128 µg/mL (≈ 327 µM) | 256 µg/mL (≈ 654 µM) | 256 µg/mL (≈ 654 µM) | 64 µg/mL (≈ 163 µM) | 256 µg/mL (≈ 654 µM) | 128 µg/mL (≈ 327 µM)
Clc1ccc(Cn2c(Cn3cnc4c(N5CCOCC5)ncnc43)nc3ccccc32)cc1 | 512 µg/mL (≈ 1110 µM) | 512 µg/mL (≈ 1110 µM) | 256 µg/mL (≈ 557 µM) | 64 µg/mL (≈ 139 µM) | 512 µg/mL (≈ 1110 µM) | 128 µg/mL (≈ 278 µM) | 256 µg/mL (≈ 557 µM) | 256 µg/mL (≈ 557 µM) | 128 µg/mL (≈ 278 µM) | 256 µg/mL (≈ 557 µM) | 256 µg/mL (≈ 557 µM) | 256 µg/mL (≈ 557 µM) | 512 µg/mL (≈ 1110 µM) | 256 µg/mL (≈ 557 µM) | 512 µg/mL (≈ 1110 µM) | 128 µg/mL (≈ 278 µM)
c1ccc(Cn2c(Cn3cnc4c(N5CCOCC5)ncnc43)nc3ccccc32)cc1 | 256 µg/mL (≈ 602 µM) | 256 µg/mL (≈ 602 µM) | 512 µg/mL (≈ 1200 µM) | 128 µg/mL (≈ 301 µM) | 512 µg/mL (≈ 1200 µM) | 128 µg/mL (≈ 301 µM) | 256 µg/mL (≈ 602 µM) | 128 µg/mL (≈ 301 µM) | 512 µg/mL (≈ 1200 µM) | 256 µg/mL (≈ 602 µM) | 256 µg/mL (≈ 602 µM) | 128 µg/mL (≈ 301 µM) | 256 µg/mL (≈ 602 µM) | 256 µg/mL (≈ 602 µM) | 512 µg/mL (≈ 1200 µM) | 256 µg/mL (≈ 602 µM)
FC(F)(F)c1nc2ccccc2n1CCn1cnc2c(N3CCOCC3)ncnc21 | 256 µg/mL (≈ 613 µM) | 128 µg/mL (≈ 307 µM) | 256 µg/mL (≈ 613 µM) | 256 µg/mL (≈ 613 µM) | 128 µg/mL (≈ 307 µM) | 64 µg/mL (≈ 153 µM) | 128 µg/mL (≈ 307 µM) | 64 µg/mL (≈ 153 µM) | 64 µg/mL (≈ 153 µM) | 256 µg/mL (≈ 613 µM) | 128 µg/mL (≈ 307 µM) | 64 µg/mL (≈ 153 µM) | 64 µg/mL (≈ 153 µM) | 32 µg/mL (≈ 76.7 µM) | 32 µg/mL (≈ 76.7 µM) | 256 µg/mL (≈ 613 µM)
CCCCCCn1c(Cn2cnc3c(N4CCCC4)ncnc32)nc2ccccc21 | 64 µg/mL (≈ 159 µM) | 128 µg/mL (≈ 317 µM) | 128 µg/mL (≈ 317 µM) | 128 µg/mL (≈ 317 µM) | 32 µg/mL (≈ 79.3 µM) | 256 µg/mL (≈ 634 µM) | 512 µg/mL (≈ 1270 µM) | 128 µg/mL (≈ 317 µM) | 64 µg/mL (≈ 159 µM) | 64 µg/mL (≈ 159 µM) | 16 µg/mL (≈ 39.6 µM) | 256 µg/mL (≈ 634 µM) | 64 µg/mL (≈ 159 µM) | 256 µg/mL (≈ 634 µM) | 32 µg/mL (≈ 79.3 µM) | 32 µg/mL (≈ 79.3 µM)
Fc1ccccc1Cn1c(Cn2cnc3c(N4CCOCC4)ncnc32)nc2ccccc21 | 256 µg/mL (≈ 577 µM) | 32 µg/mL (≈ 72.2 µM) | 64 µg/mL (≈ 144 µM) | 256 µg/mL (≈ 577 µM) | 512 µg/mL (≈ 1150 µM) | 32 µg/mL (≈ 72.2 µM) | 16 µg/mL (≈ 36.1 µM) | 64 µg/mL (≈ 144 µM) | 128 µg/mL (≈ 289 µM) | 256 µg/mL (≈ 577 µM) | 256 µg/mL (≈ 577 µM) | 64 µg/mL (≈ 144 µM) | 128 µg/mL (≈ 289 µM) | 64 µg/mL (≈ 144 µM) | 256 µg/mL (≈ 577 µM) | 64 µg/mL (≈ 144 µM)
Fc1ccc(Cn2c(Cn3cnc4c(N5CCOCC5)ncnc43)nc3ccccc32)cc1 | 256 µg/mL (≈ 577 µM) | 256 µg/mL (≈ 577 µM) | 256 µg/mL (≈ 577 µM) | 64 µg/mL (≈ 144 µM) | 256 µg/mL (≈ 577 µM) | 64 µg/mL (≈ 144 µM) | 256 µg/mL (≈ 577 µM) | 128 µg/mL (≈ 289 µM) | 64 µg/mL (≈ 144 µM) | 256 µg/mL (≈ 577 µM) | 256 µg/mL (≈ 577 µM) | 256 µg/mL (≈ 577 µM) | 256 µg/mL (≈ 577 µM) | 128 µg/mL (≈ 289 µM) | 512 µg/mL (≈ 1150 µM) | 128 µg/mL (≈ 289 µM)
Fc1cccc(Cn2c(Cn3cnc4c(N5CCOCC5)ncnc43)nc3ccccc32)c1 | 512 µg/mL (≈ 1150 µM) | 256 µg/mL (≈ 577 µM) | 256 µg/mL (≈ 577 µM) | 128 µg/mL (≈ 289 µM) | 128 µg/mL (≈ 289 µM) | 128 µg/mL (≈ 289 µM) | 64 µg/mL (≈ 144 µM) | 16 µg/mL (≈ 36.1 µM) | 32 µg/mL (≈ 72.2 µM) | 256 µg/mL (≈ 577 µM) | 256 µg/mL (≈ 577 µM) | 128 µg/mL (≈ 289 µM) | 256 µg/mL (≈ 577 µM) | 256 µg/mL (≈ 577 µM) | 256 µg/mL (≈ 577 µM) | 32 µg/mL (≈ 72.2 µM)
OC(Cn1cncn1)(Cn1cncn1)c1ccc(F)cc1F [FLUCONAZOLE] |  |  | 256 µg/mL (≈ 836 µM) | 256 µg/mL (≈ 836 µM) | 2 µg/mL (≈ 6.53 µM) |  |  |  |  | 64 µg/mL (≈ 209 µM) |  |  |  |  |  | 1 µg/mL (≈ 3.27 µM)
